Columns and labels:
[1] = set-up: method as in supplement references [1-55] as printed per drug; conditions: minimum steady-state blood plasma concentration after multiple dose administration; ref supplement references [1-55] per drug; cited from earlier work
[2] = Short-term stability in spiked pooled human plasma (bench-top, 4 °C, 56 °C)

SMILES | cmin [1] | Short-time stability (1h, 56°C) Accuracy [%] ([2]; validation standard 2xLLOV) | Short-time stability (24h, 4°C, without daylight) Accuracy [%] ([2]; validation standard 2xLLOV) | Short-time stability (24h, RT, with daylight) Accuracy [%] ([2]; validation standard 2xLLOV) | Short-time stability (24h, RT, without daylight) Accuracy [%] ([2]; validation standard 2xLLOV) | Short-time stability (1h, 56°C) Accuracy [%] ([2]; validation standard LLOV) | Short-time stability (24h, 4°C, without daylight) Accuracy [%] ([2]; validation standard LLOV) | Short-time stability (24h, RT, with daylight) Accuracy [%] ([2]; validation standard LLOV) | Short-time stability (24h, RT, without daylight) Accuracy [%] ([2]; validation standard LLOV) | Short-time stability (1h, 56°C) Accuracy [%] ([2]; validation standard MOV) | Short-time stability (24h, 4°C, without daylight) Accuracy [%] ([2]; validation standard MOV) | Short-time stability (24h, RT, with daylight) Accuracy [%] ([2]; validation standard MOV) | Short-time stability (24h, RT, without daylight) Accuracy [%] ([2]; validation standard MOV) | Short-time stability (1h, 56°C) Accuracy [%] ([2]; validation standard ULOV) | Short-time stability (24h, 4°C, without daylight) Accuracy [%] ([2]; validation standard ULOV) | Short-time stability (24h, RT, with daylight) Accuracy [%] ([2]; validation standard ULOV) | Short-time stability (24h, RT, without daylight) Accuracy [%] ([2]; validation standard ULOV)
CCC1=C[C@@H]2CN(C1)Cc1c([nH]c3ccccc13)[C@@](C(=O)OC)(c1cc3c(cc1OC)N(C)[C@H]1[C@@](O)(C(=O)OC)[C@H](OC(C)=O)[C@]4(CC)C=CCN5CC[C@]31[C@@H]54)C2 [Vinorelbine] | 2.6 ng/mL | 42.2% | 88.7% | 78.0% | 79.3% | 67.0% | 96.3% | 98.2% | 96.4% | 37.2% | 93.6% | 66.8% | 70.0% | 29.6% | 91.1% | 62.0% | 57.4%
CS(=O)(=O)c1ccc(C(=O)Nc2ccc(Cl)c(-c3ccccn3)c2)c(Cl)c1 [Vismodegib] | 11367 ng/mL | 63.8% | 105.0% | 114.6% | 117.6% | 34.2% | 87.2% | 96.1% | 99.6% | 65.7% | 105.3% | 111.1% | 114.6% | 54.4% | 94.5% | 103.5% | 104.5%

Reference: paper PMC8699473, “An Easily Expandable Multi-Drug LC-MS Assay for the Simultaneous Quantification of 57 Oral Antitumor Drugs in Human Plasma” (Cancers, 2021)
